Results as given in patent US10717725B2, “Pyrrolidine GPR40 modulators” (BRISTOL-MYERS SQUIBB COMPANY, priority 2014, dated 2020).
pEC50: −log10 of the molar value. Structures can show the parent of a compound that is named as a salt. Where two headings read alike, the source gives them in different places.

Legend:
hGPR40 [1] = target: T1, hGPR40 (Homo sapiens, UniProt O14842); assay: FDSS-based intracellular calcium assay in cell lines expressing GPR40; set-up: 3xFLAG; expressed in transfected cells; settings: intracellular Ca2+ response, cells expressing GPR40, FDSS reader
T1 sequence (O14842 whole entry): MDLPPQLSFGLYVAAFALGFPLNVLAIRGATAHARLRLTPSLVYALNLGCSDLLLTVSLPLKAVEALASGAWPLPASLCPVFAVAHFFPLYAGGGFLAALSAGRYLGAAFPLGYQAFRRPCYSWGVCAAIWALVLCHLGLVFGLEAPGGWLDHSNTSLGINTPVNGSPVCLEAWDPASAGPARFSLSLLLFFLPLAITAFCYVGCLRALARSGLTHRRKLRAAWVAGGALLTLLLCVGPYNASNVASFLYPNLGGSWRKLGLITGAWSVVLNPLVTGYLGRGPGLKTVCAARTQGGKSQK
Experimental: FDSS-Based Intracellular Calcium Assay
Cell lines expressing GPR40 are generated using the pDEST-3×FLAG gene expression system and are cultured in culture medium comprising the following components: F12 (Gibco #11765), 10% lipid deprived fetal bovine serum, 250 μg/ml zeocin and 500 μg/ml G418. To conduct the fluorescent imaging plate reader (FLIPR)-based calcium flux assay to measure intracellular Ca^2+ response, cells expressing GPR40 are plated on 384 well plates (BD Biocoat #356697) at a density of 20,000 cells/20 μL medium per well in phenol red and serum-free DMEM (Gibco #21063-029) and incubated overnight. Using BD kit #s 80500-310 or -301, the cells are incubated with 20 μL per well of Hank's buffered salt solution with 1.7 mM probenecid and Fluo-3 at 37° C. for 30 min. Compounds are dissolved in DMSO and diluted to desired concentrations with assay buffer and added to the cells as 3× solution (20 μL per well). Run fluorescence/luminescence reader FDSS (Hamamatsu) to read intracellular Ca^2+ response.

hGPR40 [2] = target: T1, hGPR40

| pEC50 (hGPR40 [1]) | pEC50 (hGPR40 [2]) | Compound |
| --- | --- | --- |
| 7.25 | 8.30 | COCCCO[C@H]1CN(c2ccc(O[C@@H]3CCN(c4cc(OC)ncc4Cl)C[C@H]3C)cc2)[C@@H](CC(=O)O)[C@@H]1C (single isomer, unassigned) [Example 1] |
| 7.01 |  | COCCCO[C@H]1CN(c2ccc(OC3CCN(c4cc(OC)ncc4Cl)CC3C)c(F)c2)[C@@H](CC(=O)O)[C@@H]1C (single isomer, unassigned) [Example 7] |
| 6.77 | 7.46 | CCOc1ccc(F)c(N2CCC(Oc3ccc(N4C[C@H](OCCCOC)[C@@H](C)[C@@H]4CC(=O)O)cn3)C(C)C2)c1 (single isomer, unassigned) [Example 9, HCl] |
| 7.29 | 8.15 | CCOc1ccc(F)c(N2CCC(Oc3ccc(N4C[C@H](OCCCOC)[C@@H](C)[C@@H]4CC(=O)O)cc3)C(C)C2)c1 (single isomer, unassigned) [Example 14, HCl] |
| 5.89 |  | COCCCO[C@H]1CN(c2ccc(OC3CCN(c4cc(OC)ncc4Cl)CC3CC(C)C)nc2)[C@@H](CC(=O)O)[C@@H]1C (single isomer, unassigned) [Example 18, Isomer 1] |
| 6.54 |  | COCCCO[C@H]1CN(c2ccc(OC3CCN(c4cc(OC)ncc4Cl)CC3CC(C)C)nc2)[C@@H](CC(=O)O)[C@@H]1C (single isomer, unassigned) [Example 18, Isomer 2] |
| 5.82 |  | COCCCO[C@H]1CN(c2ccc(OC3CCN(c4cc(OC)ncc4Cl)CC3CC(C)C)cc2)[C@@H](CC(=O)O)[C@@H]1C (single isomer, unassigned) [Example 19, Isomer 1] |
| 6.64 |  | COCCCO[C@H]1CN(c2ccc(OC3CCN(c4cc(OC)ncc4Cl)CC3CC(C)C)cc2)[C@@H](CC(=O)O)[C@@H]1C (single isomer, unassigned) [Example 19, Isomer 2] |
| 6.96 |  | CCOc1ccc(F)c(N2CCC(Oc3ccc(N4C[C@H](OCCCOC)[C@@H](C)[C@@H]4CC(=O)O)cc3F)C(C)C2)c1 (single isomer, unassigned) [Example 20] |
| 7.05 |  | COCCCO[C@H]1CN(c2cnc(OC3CCN(c4cc(OC)ncc4Cl)CC3C)c(F)c2)[C@@H](CC(=O)O)[C@@H]1C (single isomer, unassigned) [Example 22] |
| 6.96 |  | CCCCOc1cc(N2C[C@H](OCCCOC)[C@@H](C)[C@@H]2CC(=O)O)cnc1OC1CCN(c2cc(OC)ncc2Cl)CC1C (single isomer, unassigned) [Example 23, TFA] |
| 7.19 |  | COCCCO[C@H]1CN(c2cnc(OC3CCN(c4cc(OC)ncc4Cl)CC3C)c(C(F)(F)F)c2)[C@@H](CC(=O)O)[C@@H]1C (single isomer, unassigned) [Example 24] |
| 6.52 |  | COCCCO[C@H]1CN(c2cnc(OC3CCN(c4cc(OC)ncc4Cl)CC3C)c(C)c2)[C@@H](CC(=O)O)[C@@H]1C (single isomer, unassigned) [Example 25] |
| 6.96 |  | COCCCO[C@H]1CN(c2ccc(OC3CCN(c4cc(OC)ncc4Cl)CC3C)cc2F)[C@@H](CC(=O)O)[C@@H]1C (single isomer, unassigned) [Example 26] |
| 5.70 |  | COCCCO[C@H]1CN(c2ccc(OC3CCN(c4cc(OC)ncc4Cl)CC3C)cc2F)[C@H](CC(=O)O)[C@@H]1C (single isomer, unassigned) [Example 27] |
| 6.74 |  | COCCOCO[C@H]1CN(c2ccc(OC3CCN(c4cc(OC)ncc4Cl)CC3C)cc2)[C@@H](CC(=O)O)[C@@H]1C (single isomer, unassigned) [Example 28] |
| 6.74 | 7.57 | COCCCO[C@H]1CN(c2ccc(OC3CCN(c4cc(OC)ncc4Cl)CC3C)nc2)[C@@H](CC(=O)O)[C@@H]1C (stereo partly drawn) [Example 2, 2-((2S,3S,4R)-1-(6-(((3,4-trans)-1-(5-Chloro-2-methoxypyridin-4-yl)-3-methylpiperidin-4-yl)oxy)pyridin-3-yl)-4-(3-methoxypropoxy)-3-methylpyrrolidin-2-yl)acetic acid, HCl] |
| 6.70 |  | CCOc1ccc(F)c(N2CCC(Oc3ccc(N4C[C@H](OCCCOC)[C@@H](C)[C@@H]4CC(=O)O)cc3)CC2)c1 [Example 3, 2-((2S,3S,4R)-1-(4-((1-(5-Ethoxy-2-fluorophenyl)piperidin-4-yl)oxy)phenyl)-4-(3-methoxypropoxy)-3-methylpyrrolidin-2-yl)acetic acid, HCl] |
| 7.14 | 7.89 | COCCCO[C@H]1CN(c2ccc(OC3CCN(c4cc(OC)ncc4Cl)CC3)cc2)[C@@H](CC(=O)O)[C@@H]1C [Example 4, 2-((2S,3S,4R)-1-(4-((1-(5-Chloro-2-methoxypyridin-4-yl)piperidin-4-yl)oxy)phenyl)-4-(3-methoxypropoxy)-3-methylpyrrolidin-2-yl)acetic acid] |
| 6.77 |  | CCOc1ccc(F)c(N2CCC(Oc3ccc(N4C[C@H](OCCCOC)[C@@H](C)[C@@H]4CC(=O)O)cn3)CC2)c1 [Example 5, 2-((2S,3S,4R)-1-(6-((1-(5-Ethoxy-2-fluorophenyl)piperidin-4-yl)oxy)pyridin-3-yl)-4-(3-methoxypropoxy)-3-methylpyrrolidin-2-yl)acetic acid] |
| 6.70 | 7.72 | COCCCO[C@H]1CN(c2ccc(OC3CCN(c4cc(OC)ncc4Cl)CC3)nc2)[C@@H](CC(=O)O)[C@@H]1C [Example 6, 2-((2S,3S,4R)-1-(6-((1-(5-Chloro-2-methoxypyridin-4-yl)piperidin-4-yl)oxy)pyridin-3-yl)-4-(3-methoxypropoxy)-3-methylpyrrolidin-2-yl)acetic acid] |
| 5.96 |  | CCc1cc(N2CCC(Oc3ccc(N4C[C@H](OCCCOC)[C@@H](C)[C@@H]4CC(=O)O)cc3)CC2)c(Cl)cn1 [Example 8, 2-((2S,3S,4R)-1-(4-((1-(5-Chloro-2-ethylpyridin-4-yl)piperidin-4-yl)oxy)phenyl)-4-(3-methoxypropoxy)-3-methylpyrrolidin-2-yl)acetic acid, HCl] |
| 6.42 | 7.33 | CCOc1ccc(F)c(N2CCC(Oc3ccc(N4C[C@H](CCCOC)C[C@@H]4CC(=O)O)cc3)CC2)c1 [Example 10, 2-((2R,4R)-1-(4-((1-(5-Ethoxy-2-fluorophenyl)piperidin-4-yl)oxy)phenyl)-4-(3-methoxypropyl)pyrrolidin-2-yl)acetic acid, TFA] |
| 6.00 |  | CCOc1ccc(F)c(N2CCC(Oc3ccc(N4C[C@H](OCCOC)C[C@@H]4CC(=O)O)cc3)CC2)c1 [Example 13, 2-((2R,4R)-1-(4-((1-(5-Ethoxy-2-fluorophenyl)piperidin-4-yl)oxy)phenyl)-4-(2-methoxyethoxy)pyrrolidin-2-yl)acetic acid, TFA] |
| 6.01 |  | CCOc1ccc(F)c(N2CCC(Oc3ccc(N4C[C@H](OCCCS(C)(=O)=O)[C@@H](C)[C@@H]4CC(=O)O)cc3)CC2)c1 [Example 16, 2-((2S,3 S,4R)-1-(4-((1-(5-Ethoxy-2-fluorophenyl)piperidin-4-yl)oxy)phenyl)-3-methyl-4-(3-(methylsulfonyl)propoxy)pyrrolidin-2-yl)acetic acid] |
| 7.21 |  | COCCCO[C@H]1CN(c2cnc(OC3CCN(c4cc(OC)ncc4Cl)CC3)c(C(F)(F)F)c2)[C@@H](CC(=O)O)[C@@H]1C [Example 30, 2-((2S,3S,4R)-1-(6-((1-(5-Chloro-2-methoxypyridin-4-yl)piperidin-4-yl)oxy)-5-(trifluoromethyl)pyridin-3-yl)-4-(3-methoxypropoxy)-3-methylpyrrolidin-2-yl) acetic acid] |
| 6.72 |  | COc1cc(N2CCC(Oc3ccc(N4C[C@H](OCCCC#N)[C@@H](C)[C@@H]4CC(=O)O)cc3)C(C)C2)c(Cl)cn1 (stereo partly drawn) [Example 32, 2-((2S,3S,4R)-1-(4-(((3,4-trans)-1-(5-Chloro-2-methoxypyridin-4-yl)-3-methylpiperidin-4-yl)oxy)phenyl)-4-(3-cyanopropoxy)-3-methylpyrrolidin-2-yl)acetic acid] |
| 7.00 |  | COCCCO[C@H]1CN(c2cnc(O[C@@H]3CCN(c4cc(OC)ncc4Cl)C[C@H]3C)nc2)[C@@H](CC(=O)O)[C@@H]1C [Example 33, 2-((2S,3 S,4R)-1-(2-(((3R,4R)-1-(5-Chloro-2-methoxypyridin-4-yl)-3-methylpiperidin-4-yl)oxy)pyrimidin-5-yl)-4-(3-methoxypropoxy)-3-methylpyrrolidin-2-yl)acetic acid] |

| Compound | pEC50 (hGPR40 [1]) | pEC50 (hGPR40 [2]) |
| --- | --- | --- |
| 2-((2S,3S,4R)-1-(4-(((3,4-trans)-1-(5-Chloro-2-methoxypyridin-4-yl)-3-methylpiperidin-4-yl)oxy)phenyl)-4-(3-methoxy-2-methylpropoxy)-3-methylpyrrolidin-2-yl)acetic acid [Example 21, Isomer 1] | 6.92 |  |
| 2-((2S,3S,4R)-1-(4-(((3,4-trans)-1-(5-Chloro-2-methoxypyridin-4-yl)-3-methylpiperidin-4-yl)oxy)phenyl)-4-(3-methoxy-2-methylpropoxy)-3-methylpyrrolidin-2-yl)acetic acid [Example 21, Isomer 2] | 7.00 |  |
